Test results as given in patent US11168067B2, “Substituted quinazoline compound having blood-brain barrier penetration capability” (WEISHANG (SHANGHAI) BIO-PHARMACEUTICAL CO., LTD., priority 2016, dated 2021).

Experiments:
PC-9-luc tumor cells = assay: Efficacy study on intracranial animal model (PC-9-luc); type: in vivo; settings: Iressa human equivalent dose, 8 mice per group
Text: The injection was slowly preceded over a one-minute period. Upon completing injection, the needle was retained for another minute. After the needle removal, the hole was sealed with bone wax and the incision was closed. The tumor growth was monitored by image analysis. On Day 10, mice were randomized into 5 groups (8 mice per group) and start the treatments for three weeks.
The tumor growth was monitored by bioiluminense intensity. […] The survival benefits (no death or bodyweight loss less than 18%) treatment with compound X disclosed in table 3.

P-glycoprotein = P-glycoprotein (Homo sapiens, UniProt P08183); assay: P-glycoprotein efflux substrate; type: in vitro ADME
Sequence of P-glycoprotein (P08183 whole entry): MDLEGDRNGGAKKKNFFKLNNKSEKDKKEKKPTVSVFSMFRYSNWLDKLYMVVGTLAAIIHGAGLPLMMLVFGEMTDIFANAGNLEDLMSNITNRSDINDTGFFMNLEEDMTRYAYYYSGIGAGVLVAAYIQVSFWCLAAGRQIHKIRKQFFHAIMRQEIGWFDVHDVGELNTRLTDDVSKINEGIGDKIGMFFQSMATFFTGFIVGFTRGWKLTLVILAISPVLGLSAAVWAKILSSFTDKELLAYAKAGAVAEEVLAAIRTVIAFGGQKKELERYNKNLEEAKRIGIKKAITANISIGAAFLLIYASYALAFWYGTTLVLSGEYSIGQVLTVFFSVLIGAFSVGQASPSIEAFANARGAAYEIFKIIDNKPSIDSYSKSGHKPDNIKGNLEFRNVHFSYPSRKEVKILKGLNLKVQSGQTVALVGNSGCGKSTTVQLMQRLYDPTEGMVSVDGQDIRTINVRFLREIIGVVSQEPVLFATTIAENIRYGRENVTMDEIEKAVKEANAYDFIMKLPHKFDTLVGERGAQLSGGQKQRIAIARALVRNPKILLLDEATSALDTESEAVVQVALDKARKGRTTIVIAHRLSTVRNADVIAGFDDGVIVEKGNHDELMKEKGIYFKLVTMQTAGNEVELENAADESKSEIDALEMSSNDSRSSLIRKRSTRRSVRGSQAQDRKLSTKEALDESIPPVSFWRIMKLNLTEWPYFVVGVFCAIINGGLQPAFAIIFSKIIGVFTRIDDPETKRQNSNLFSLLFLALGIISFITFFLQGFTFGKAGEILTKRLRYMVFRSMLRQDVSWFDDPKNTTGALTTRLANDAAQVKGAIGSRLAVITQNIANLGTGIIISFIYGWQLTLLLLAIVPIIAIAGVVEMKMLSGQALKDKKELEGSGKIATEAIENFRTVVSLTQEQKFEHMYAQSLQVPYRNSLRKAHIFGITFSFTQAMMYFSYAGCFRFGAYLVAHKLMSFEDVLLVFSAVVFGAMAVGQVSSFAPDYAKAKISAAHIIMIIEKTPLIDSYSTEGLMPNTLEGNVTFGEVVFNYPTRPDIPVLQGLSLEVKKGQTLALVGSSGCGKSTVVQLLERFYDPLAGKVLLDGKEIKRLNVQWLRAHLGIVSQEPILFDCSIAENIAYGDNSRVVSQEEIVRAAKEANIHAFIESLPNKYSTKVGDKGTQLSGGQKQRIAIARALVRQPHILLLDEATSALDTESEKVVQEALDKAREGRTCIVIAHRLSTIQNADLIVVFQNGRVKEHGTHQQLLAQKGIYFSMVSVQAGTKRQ

[1] = Blood-brain barrier penetration (brain tissue to plasma concentration ratio); type: in vivo; settings: rat, rats, four hours after dosing
Experimental: To determine whether the compound was able to cross the blood-brain barrier (BBB), the rats were administered with the test compound. Four hours after dosing, rats were sacrificed, blood and brain tissue were collected and the concentration of the test compound was analyzed. Brain permeation is defined as the ratio of the concentration of the compound in the brain tissue to the concentration in the plasma. P-glycoprotein is the blood-brain barrier efflux protein, […].

PC-9 tumor cell = assay: CellTiter-Glo (CTG) cell viability assay, PC-9 tumor cell growth inhibition
Experimental: Cell viability of tumor cells with EGFR-activated mutations (exon 19-deficient Exon 19 Del) protein was detected using CellTiter-Glo (CTG) assay; about 5000 cells were seeded in each blank 96-well plate, 16 hours later, add the proportionally diluted compound, equilibrated at room temperature for 72 hours after the addition of the drug for 30 minutes. 100 μl of CellTiter-Glo reagent was added to each well and the orbital shaker was mixed for 2 minutes to induce cell lysis. The plate was incubated at room temperature for 10 minutes to stabilize the luminescence signal. The TECAN Infinite M1000 Pro instrument records the luminescence signal.

IC50 (PC-9 tumor cell; Homo sapiens, PC-9, 72 h, read-out: PC-9 tumor cell growth inhibition IC50) | SMILES | survival (no death or bodyweight loss less than 18%), mice at D 20 (PC-9-luc tumor cells; D 20 post tumor implantation) | survival, mice at D 24 (PC-9-luc tumor cells; D 24 post tumor implantation) | survival, mice at D 27 (PC-9-luc tumor cells; D 27 post tumor implantation) | survival, mice at D 28 (PC-9-luc tumor cells; D 28 post tumor implantation) | survival, mice at D 30 (PC-9-luc tumor cells; D 30 post tumor implantation) | survival, mice at D 31 (PC-9-luc tumor cells; D 31 post tumor implantation) | P-glycoprotein efflux substrate (P-glycoprotein) | Kp at 4 h [1] | inhibiting PC-9 tumor cell growth compared with Iressa (PC-9 tumor cell; PC-9 cells, cell viability assay)
– | COc1cc2ncnc(Nc3ccc(F)c(Cl)c3)c2cc1OCCCN1CCOCC1 [Iressa, gefitinib] | 8 | 7 | 7 | 7 | 7 | 4 | yes | < 0.05 | –
< 1 nM | [2H]C([2H])([2H])Oc1cc2ncnc(Nc3ccc(F)c(Cl)c3F)c2cc1OC1CCN(C2COC2)CC1(F)F (racemic) [Compound 9, (R/S)—N-(3-chloro-2,4-difluorophenyl)-6-((3,3-difluoro-1-(oxetan-3-yl)piperidin-4-yl)oxy)-7-(methoxy-d3)quinazolin-4-amine] | – | – | – | – | – | – | – | > 0.3 | more effective than Iressa
